# How the values were obtained:
# [1] = In vitro drug release behavior of soft bio-integrated device; type: physicochemical; conditions: within one week, PBS (pH 7.4), 37° C., FIG. 31A
# Protocol: A scaffold in which gemcitabine, rhodamine-attached poly(I:C)/nanogel, and a 4T1 cell lysate were loaded was added to 1 mL of PBS (pH 7.4), and stored at 37° C. and 90 rpm. Every selected time interval, the original culture medium was obtained and exchanged with a fresh medium. An amount of gemcitabine released from the scaffold was measured using absorbance (275 nm, UV-1800; Shimadzu, Kyoto, Japan), the rhodamine-attached poly(I:C) was measured according to the protocol of the 5'[…] Nucleic Acid Labeling System (Vector Laboratories), and the 4T1 cell lysate was measured using the BCA assay method (Pierce Biotechnology). Specifically, a fluorescence spectrometer (PerkinElmer) was used to detect and analyze fluorescence at 552 nm (excitation) and 575 nm (emission) from the poly(I:C)/nanogel attached to rhodamine released from the scaffold.
# [2] = test system: myeloid-derived-suppressor cells (MDSCs); test: Gemcitabine-induced apoptosis of MDSCs (FITC Annexin V); type: cell-based, mouse; conditions: various gemcitabine concentrations, FIG. 31B
# Protocol: Gemcitabine induces apoptosis of myeloid-derived-suppressor cells (MDSCs) in vitro. The spleen was extracted from a mouse harboring 4T1 tumors for 28 days, the extracted spleen was ground, and RBCs were removed therefrom using an RBC lysis buffer. The RBC-removed spleen cells were re-dispersed in a MACS buffer (PBS, 0.5% BSA, […]), MDSCs were isolated using an MDSC isolation kit (Miltenyi Biotec). The isolated myeloid-derived-suppressor cells were seeded in a 6-well plate at a density of 2×10^6 cells/well, and incubated with various concentrations of gemcitabine. The gemcitabine-induced apoptosis of the MDSCs was assessed according to the protocol of an FITC Annexin V Apoptosis kit (BD Biosciences).
# [3] = test system: 4T1 tumor; test: In vivo anticancer effect after tumor resection and implantation of soft bio-integrated device; design: species or system BALB/c mice; conditions: day 7 and day 14, FIG. 38A
# Protocol: When 1×10^6 4T1 cells were injected and the size of a growing tumor became 300 mm^3 on day 14 after injection, the tumor was partially resected. A mouse was anesthetized using 2,2,2-tribromoethanol. The surgical site was sterilized with 70% ethanol, and 90% of the tumor was resected so that 10% of the tumor remained. A scaffold was implanted near the remaining part of the tumor.
# On day 7 and day 14 after tumor removal and implantation of a soft bio-integrated device, a mouse was sacrificed, and a tumor, the spleen and a lymph node of the sacrificed mouse were isolated to measure weights thereof.
# The tumor and lymph node were cut into small pieces, dispersed in DMEM containing collagenase D, stored for 1 hour at 37° C. and 90 rpm, and then filtered through a 70-μm strainer. The spleen was physically disrupted, and then RBCs were removed using an RBC lysis buffer. The tumor and spleen dispersed as single cells by the above-described method were analyzed using APC-anti-CD11b and PE-anti-Gr1 antibodies to confirm myeloid-derived-suppressor cells and using APC-anti-CD3, PE-anti-CD4 and FITC-CD8 antibodies to confirm T cells. All antibodies were purchased from BD Pharmingen.
# Moreover, to confirm tumor metastasis, on day 14 after the tumor removal, the mouse was sacrificed to confirm metastasis. […]
# [4] = test system: 4T1 breast cancer cell line; test: Gemcitabine-induced apoptosis of 4T1 breast cancer cells (FITC Annexin V); type: cell-based; conditions: change in gemcitabine concentration, FIG. 31C
# Protocol: In addition, the activation of BMDCs using a gemcitabine-treated 4T1 breast cancer cell line was confirmed. […] The gemcitabine-induced apoptosis of the 4T1 breast cancer cells was assessed according to the protocol of the FITC Annexin V Apoptosis kit (BD Biosciences). After 24 hours, a supernatant was collected, and then incubated with BMDCs. A BMDC activation marker was analyzed using an Accuri™ flow cytometer. Antibodies used herein were FITC-anti-CD11c and APC-anti-CD80 (BD Pharmingen).
# [5] = test system: BMDCs; test: Activation of BMDCs using gemcitabine-treated 4T1 breast cancer cell line; type: cell-based, mouse; conditions: gemcitabine-treated breast cancer cell line versus control, FIG. 31D
# Protocol: In addition, the activation of BMDCs using a gemcitabine-treated 4T1 breast cancer cell line was confirmed. The 4T1 cells were cultured with 1 μg/mL gemcitabine in a 6-well plate at a density of 2×10^6 cells/well. The gemcitabine-induced apoptosis of the 4T1 breast cancer cells was assessed according to the protocol of the FITC Annexin V Apoptosis kit (BD Biosciences). After 24 hours, a supernatant was collected, and then incubated with BMDCs. A BMDC activation marker was analyzed using an Accuri™ flow cytometer. Antibodies used herein were FITC-anti-CD11c and APC-anti-CD80 (BD Pharmingen).
smiles,measurement,setting,value
Nc1ccn([C@@H]2O[C@H](CO)[C@@H](O)C2(F)F)c(=O)n1 [gemcitabine],accumulation amount of gemcitabine released from the scaffold,[1],approximately 90%
same,dead cell percentage of MDSCs,[2],increased as the gemcitabine concentration increased
same,MDSC proportion in the tumor and the spleen,[3],reduced
same,dead cell percentage in breast cancer cell line (4T1),[4],increased as the gemcitabine concentration increased
same,cell maturity of dendritic cells,[5],increased
